# Columns and labels:
# c-Raf-1 = biological target: T1, c-Raf-1 (Homo sapiens, UniProt P04049); experiment: c-Raf-1 protein kinase assay; format: biochemical; parameters: dose or concentration left out as unconfirmed
# T1 construct: made in house; host or cells: Sf21 insect cells, triple baculovirus infection (GST-c-Raf-1, v-Ras, v-Src)
# Method: c-Raf-1 protein kinase assay: Recombinant c-Raf-1 protein is obtained by triple infection of Sf21 cells with GST-c-Raf-1 recombinant baculovirus together with v-Src and v-Ras recombinant baculoviruses that are required for active c-Raf-1 kinase production (Williams et al., PNAS 1992; 89:2922-6). Active Ras (v-Ras) is required to recruit c-Raf-1 to the cell membrane and v-Src to phosphorylate c-Raf-1 to fully activate it. Cells are seeded at 2.5×10^7 cells per 150 mm dish and allowed to attach to a 150 mm dish for 1 hr at RT. Media (SF900II containing 10% FBS) is aspirated and recombinant baculovirus GST-c-Raf-1, v-Ras and v-Src are added at MOI of 3.0, 2.5 and 2.5, respectively, in a total volume of 4-5 mL. Cells are incubated for 1 hr at RT and then 15 mL of medium is added. Infected cells are incubated for 48-72 hr at 27° C. Infected Sf21 cells are scraped and collected into a 50 mL tube and centrifuged for 10 min at 4° C. at 1100 g in a Sorvall centrifuge. The cell pellet is washed once with ice cold PBS and lysed with 0.6 mL lysis buffer per 2.5×10^7 cells. Complete lysis of cells is achieved after 10 min on ice with occasional pipetting. The cell lysates are centrifuged for 10 min at 4° C. at 14,500 g in a Sorvall centrifuge with SS-34 rotor and the supernatant is transferred to a fresh tube and stored at −80° C. c-Raf-1 is purified from cell lysates using 100 μL of packed glutathione-sepharose 4B beads equilibrated in ice cold PBS per 2.5×10^7 cells. GST-c-Raf-1 is allowed to bind to the beads at 4° C. for 1 hr with rocking. Bound GST-c-Raf-1 with beads is transferred to a column. The column is washed once with lysis buffer and twice with ice cold Tris buffered saline. Ice cold elution buffer is added and column flow is stopped to allow the free glutathione to disrupt the interaction of GST-c-Raf-1 with glutathione sepharose beads. Fractions (1 mL) are collected into pre-chilled tubes. Each tube contains 10% glycerol (final concentration) to maintain kinase activity during freeze thaw cycles. Purified fractions of GST-c-Raf-1 kinase protein are stored at −80° C.
# IκB is used as substrate for the c-Raf-1 kinase. IκB is expressed in bacteria as a His-tagged protein BL21. LysS bacteria containing the IκB plasmid are grown to an OD600 of 0.6 in LB medium, then induced to express the IκB with IPTG (final concentration of 1 mM) for 3 hrs at 37° C. and then bacteria are lysed by sonication (microtip limit setting for 3 times at 1 min each in sonication buffer [50 mM Tris pH 8.0, 1 mM DTT, 1 mM EDTA] and centrifuged at 10,000 g for 15 min. The supernatant is mixed with ammonium sulfate to give a final concentration of 30%. This mixture is rocked for 15 min at 4 C then spun at 10,000 g for 15 min. The pellet is resuspended in binding buffer (Novagen) containing 10 mM BSA. This solution is applied to Ni-agarose (Novagen) and washed according to the Novagen manual. IκB is eluted from the column using elution buffer (0.4 M imidazole, 0.2 M NaCl, 8 mM Tris pH 7.9). Fractions containing protein are dialysed in 50 mM Tris pH 8, 1 mM DTT. The activity of c-Raf-1 protein kinase is assayed in the presence or absence of inhibitors, by measuring the incorporation of ^33P from [γ^33P] ATP into IκB. The assay is carried out in 96-well plates at ambient temperature for 60 min. It contains (total volume of 30 μL): c-Raf-1 kinase (400 ng), 25 mM Tris.HCl, pH 7.5, 5 mM MgCl2, 5 mM MnCl2, 10 μM Na3VO4, 1 mM DTT and 0.3 μCi/assay [γ^33P]-ATP (10 μM ATP) using 600 ng IκB in the presence of 1% DMSO. Reactions are terminated by adding 10 μL of 250 mM EDTA and 30 μL of the reaction mixture is transferred onto Immobilon-PVDF membrane (Millipore, Bedford, Mass., USA) previously soaked for 5 min with methanol, rinsed with water, then soaked for 5 min with 0.5% H3PO4 and mounted on vacuum manifold with disconnected vacuum source. After spotting all samples, vacuum is connected and each well rinsed with 200 μL 0.5% H3PO4. […]
# EGF-R (HER-1) = EGF-R (HER-1) (Homo sapiens, UniProt P00533); experiment: Inhibition of the tyrosine kinase activity of EGF-R (HER-1); format: biochemical; parameters: dose or concentration left out as unconfirmed
c-Raf-1/ %-inh. [%] (c-Raf-1),HER-1/ %-inh. [%] (EGF-R (HER-1)),melting point [°C],Molecule
50,54,> 300,"CN(C)c1ncnc2[nH]c(-c3ccc(C(C)(C)O)cc3)cc12 [Example 34, 2-[4-(4-Dimethylamino-7H-pyrrolo[2,3-d]pyrimidin-6-yl)-phenyl]-propan-2-ol]"
100,97,,"CCCN(C)c1ncnc2[nH]c(-c3ccc(CN4CCN(C)CC4)cc3)cc12 [Example 19, Methyl-{6-[4-(4-methyl-piperazin-1-ylmethyl)-phenyl]-7H-pyrrolo[2,3-d]pyrimidin-4-yl}-propyl-amine]"
100,93,,"CN(C)c1ncnc2[nH]c(-c3ccc(Cn4ccnc4)cc3)cc12 [Example 24, [6-(4-Imidazol-1-ylmethyl-phenyl)-7H-pyrrolo[2,3-d]pyrimidin-4-yl]-dimethylamine]"
77,79,157 to 158,"COCCN(C)Cc1ccc(-c2cc3c(N(C)C)ncnc3[nH]2)cc1 [Example 29, [6-(4-{[(2-Methoxy-ethyl)-methyl-amino]-methyl}-phenyl)-7H-pyrrolo[2,3-d]pyrimidin-4-yl]-dimethyl-amine]"
96,57,285 to 287,"CN(C)c1ncnc2[nH]c(-c3ccc(Cc4ccc[nH]4)cc3)cc12 [Example 25, Dimethyl-{6-[4-(1H-pyrrol-2-ylmethyl)-phenyl]-7H-pyrrolo[2,3-d]pyrimidin-4-yl}-amine]"
51,59,275 to 277,"CN1CCN(C(=O)c2ccc(-c3cc4c(N(C)C)ncnc4[nH]3)cc2)CC1 [Example 3, [4-(4-Dimethylamino-7H-pyrrolo[2,3-d]pyrimidin-6-yl)-phenyl]-(4-methyl-piperazin-1-yl)-methanone]"
40,64,252 to 254,"CN1CCN(Cc2ccc(-c3cc4c(N(C)C)ncnc4[nH]3)cc2)CC1 [Example 4, Dimethyl-{6-[4-(4-methyl-piperazin-1-ylmethyl)-phenyl]-7H-pyrrolo[2,3-d]pyrimidin-4-yl}-amine]"
,59,260 to 262,"CN(C)c1ncnc2[nH]c(-c3ccc(C(=O)NCCCN4CCOCC4)cc3)cc12 [Example 7, 4-(4-Dimethylamino-7H-pyrrolo[2,3-d]pyrimidin-6-yl)-N-(3-morpholin-4-yl-propyl)-benzamide]"
48,58,,"CCN(CC)CCCNC(=O)c1ccc(-c2cc3c(N(C)C)ncnc3[nH]2)cc1 [Example 5, N-(3-Diethylamino-propyl)-4-(4-dimethylamino-7H-pyrrolo[2,3-d]pyrimidin-6-yl)-benzamide]"
100,95,302 to 305,"CCCNc1ncnc2[nH]c(-c3ccc(C(=O)N4CCN(C)CC4)cc3)cc12 [Example 17, (4-Methyl-piperazin-1-yl)-[4-(4-propylamino-7H-pyrrolo[2,3-d]pyrimidin-6-yl)-phenyl]-methanone]"
56,78,,"[4-(4-Methylamino-7H-pyrrolo[2,3-d]pyrimidin-6-yl)-phenyl]-morpholin-4-yl-methanone [Example 2]"
22,85,315,"CNc1ncnc2[nH]c(-c3ccc(C(=O)N4CCN(C)CC4)cc3)cc12 [Example 12, [4-(4-Methylamino-7H-pyrrolo[2,3-d]pyrimidin-6-yl)-phenyl]-(4-methyl-piperazin-1-yl)-methanone]"
44,90,280 to 283,"CNc1ncnc2[nH]c(-c3ccc(C(C)(C)O)cc3)cc12 [Example 35, 2-[4-(4-Methylamino-7H-pyrrolo[2,3-d]pyrimidin-6-yl)-phenyl]-propan-2-ol]"
64,94,302 to 305,"CN1CCN(C(=O)c2ccc(-c3cc4c(NCCCO)ncnc4[nH]3)cc2)CC1 [Example 15, {4-[4-(3-Hydroxy-propylamino)-7H-pyrrolo[2,3-d]pyrimidin-6-yl]-phenyl}-(4-methyl-piperazin-1-yl)-methanone]"
100,98,232 to 234,"CCCNc1ncnc2[nH]c(-c3ccc(CN4CCN(C)CC4)cc3)cc12 [Example 18, {6-[4-(4-Methyl-piperazin-1-ylmethyl)-phenyl]-7H-pyrrolo[2,3-d]pyrimidin-4-yl}-propyl-amine]"
67,94,,"CNc1ncnc2[nH]c(-c3ccc(CN4CCN(C)CC4)cc3)cc12 [Example 16, Methyl-{6-[4-(4-methyl-piperazin-1-ylmethyl)-phenyl]-7H-pyrrolo[2,3-d]pyrimidin-4-yl}-amine]"
100,83,275 to 278,"CN(C)c1ncnc2[nH]c(-c3ccc(Cn4cnnn4)cc3)cc12 [Example 27, Dimethyl-[6-(4-tetrazol-1-ylmethyl-phenyl)-7H-pyrrolo[2,3-d]pyrimidin-4-yl]-amine]"
80,85,218 to 220,"CN(C)c1ncnc2[nH]c(-c3ccc(CNCCCO)cc3)cc12 [Example 28, 3-[4-(4-Dimethylamino-7H-pyrrolo[2,3-d]pyrimidin-6-yl)-benzylamino]-propan-1-ol]"
63,70,316 to 318,"CN(C)c1ncnc2[nH]c(-c3ccc(C(=O)N4CCOCC4)cc3)cc12 [Example 6, [4-(4-Dimethylamino-7H-pyrrolo[2,3-d]pyrimidin-6-yl)-phenyl]-morpholin-4-yl-methanone]"
48,98,180 to 182,"CCC(O)(CC)c1ccc(-c2cc3c(NCCCn4cccc4)ncnc3[nH]2)cc1 [Example 33, 3-{4-[4-(3-Pyrrol-1-yl-propylamino)-7H-pyrrolo[2,3-d]pyrimidin-6-yl]-phenyl}-pentan-3-ol]"
